The test system of the assay is Streptococcus pyogenes (ATCC# 97-03 14289). In words: Anti-microbial screen (percent inhibition of growth, OD 570 nm). The assay is classed as cell-based. As to conditions: Conc 0.1776 mg ml. As for the experimental part: Streptococcus pyogenes (ATCC# 97-03 14289) was grown in Todd Hewitt Broth (THB) (Difco Laboratories #0492-17-6) overnight until reaching an optical density of (OD=0.636@570 nm) by reading 0.1 ml in a 96 well microtiter plate in a Molecular Devices Thermomax. This preparation was kept frozen as stocks in 30% v/v glycerol in 1.5 ml aliquots at […] until use. Prior to experiments, 6 ml aliquots were thawed and diluted into 50 ml 2×THB. 60 ul of this dilution was added to 92 wells of microtiter plate. To three wells THB (200 ul) was added to serve as a blank and a sterility control. Test compounds in DMSO and appropriate concentrations of DMSO were added to Growth/Solvent Controls at 0 time. Plates were read at 0 time at 570 nm in the Molecular Devices plate reader to obtain compounds correction factors for insoluble or colored compounds. Plates were read again at 4 hours.
Percent inhibition is calculated with the following formula:
Color correct=O.D. 0 hr - Blank 0 hr)-(Solvent Control Ohr - Blank 0 hr) [formula]

The mark [1] stands for this setting: Spy4H: Streptococcus pyogenes, read at 4 hours, OD 570 nm.
[2] abbreviates: Streptococcus pyogenes, Assay Spy4H, plates read at 570 nm at 0 time and at 4 hours.

This is an account of results in patent publication US20040010036A1, “N,N, -Substituted s-Aryl-Isothioureas, N,N,N, -Substituted s-Aryl-Isothioureas and combinatorial libraries thereof” (priority 2002, published 2004).

The structures appear in SMILES notation.

As for `Cc1ccc(CN(Cc2ccc(O)cc2)/C(=N\c2ccc(C(F)(F)F)cc2)Sc2ccc(C)cc2C)cc1` [Cmpd 7], under setting [1], testing at 177.6 µg/mL gave an inhibition of growth of 63.7%. Still for that read-out and setting: the result for `Cc1ccc(CN(Cc2ccc(O)cc2)/C(=N/c2ccc(Cl)c(Cl)c2)Sc2ccc(C)cc2C)cc1` [Cmpd 8] reads 57.5%. Regarding `Cc1ccc(CN(Cc2ccc(O)cc2)/C(=N/c2cc(Cl)cc(Cl)c2)Sc2ccc(C)cc2C)cc1` [Cmpd 13], the inhibition of growth (as a rule, the share of the control response that was lost under treatment) at 177.6 µg/mL under setting [1] is 65.7%. Regarding `Cc1ccc(CN(Cc2ccc(O)cc2)/C(=N\c2ccc(Cl)c([N+](=O)[O-])c2)Sc2ccc(C)cc2C)cc1` [Cmpd 23], under setting [1], the inhibition of growth at 177.6 µg/mL came to 61.3%. Under setting [1], `Cc1ccc(CN(Cc2ccc(O)cc2)/C(=N/c2ccccc2[N+](=O)[O-])Sc2ccc(C)cc2C)cc1` [Cmpd 26] registered an inhibition of growth at 177.6 µg/mL of 58.1%. Regarding `COc1ccc(C)cc1/N=C(\Sc1ccc(C)cc1C)N(Cc1ccc(C)cc1)Cc1ccc(O)cc1` [Cmpd 29], the inhibition of growth at 177.6 µg/mL under setting [2] was 53.7%.

`Cc1ccc(CN(Cc2ccc(O)cc2)/C(=N\c2ccc(Cl)c(C(F)(F)F)c2)Sc2ccc(C)cc2C)cc1` [Cmpd 33] gave an inhibition of growth at 177.6 µg/mL under setting [1] of 57.8%. `Cc1ccc(CN(Cc2ccc(O)cc2)/C(=N/c2ccc(F)c(F)c2)Sc2ccc(C)cc2C)cc1` [Cmpd 36] returned an inhibition of growth at 177.6 µg/mL under setting [2] of 56.8%. For the molecule `COc1cccc(S/C(=N\Cc2ccc(F)cc2)N(Cc2ccc(O)cc2)Cc2ccc(Cl)c(Cl)c2)c1` [Cmpd 44], under setting [1], the inhibition of growth at 177.6 µg/mL is 67.5%. The same measure, in the same setting: the result for `COc1cccc(S/C(=N\c2cccc(C(F)(F)F)c2)N(Cc2ccc(O)cc2)Cc2ccc(Cl)c(Cl)c2)c1` [Cmpd 46] reads 60.6%; that for `COc1cccc(S/C(=N\c2ccc(C(F)(F)F)cc2)N(Cc2ccc(O)cc2)Cc2ccc(Cl)c(Cl)c2)c1` [Cmpd 47], 85.8%. In turn, `COc1cccc(S/C(=N\c2cccc(Cl)c2)N(Cc2ccc(O)cc2)Cc2ccc(Cl)c(Cl)c2)c1` [Cmpd 52] returned an inhibition of growth at 177.6 µg/mL under setting [2] of 52.6%. `COc1cccc(S/C(=N\c2cc(Cl)cc(Cl)c2)N(Cc2ccc(O)cc2)Cc2ccc(Cl)c(Cl)c2)c1` [Cmpd 53]: under setting [1], the inhibition of growth at 177.6 µg/mL was determined as 70.2%. In the case of `COc1cccc(S/C(=N\c2ccc(Cl)c([N+](=O)[O-])c2)N(Cc2ccc(O)cc2)Cc2ccc(Cl)c(Cl)c2)c1` [Cmpd 63], under setting [1], the inhibition of growth at 177.6 µg/mL came out at 66.8%. Still for that read-out and setting: the result for `COc1cccc(S/C(=N/c2ccc(Cl)c(C(F)(F)F)c2)N(Cc2ccc(O)cc2)Cc2ccc(Cl)c(Cl)c2)c1` [Cmpd 73] reads 85.8%. For `COc1cccc(S/C(=N/c2ccc(OC(F)(F)F)cc2)N(Cc2ccc(O)cc2)Cc2ccc(Cl)c(Cl)c2)c1` [Cmpd 75], the inhibition of growth at 177.6 µg/mL under setting [2] stood at 52.3%. Consider `COCCN(Cc1cccc(O)c1)/C(=N\c1cccc(F)c1)Sc1ccc(C)cc1C` [Cmpd 83], for which the inhibition of growth at 177.6 µg/mL under setting [1] is 70.9%.

On to `COCCN(Cc1cccc(O)c1)/C(=N\c1ccc(F)cc1F)Sc1ccc(C)cc1C` [Cmpd 85], for which 177.6 µg/mL produced 82.3% inhibition of growth under setting [1]. Regarding `COCCN(Cc1cccc(O)c1)/C(=N\c1ccc(C)cc1)Sc1ccc(C)cc1C` [Cmpd 90], at 177.6 µg/mL the inhibition of growth under setting [1] was 81.3%. The molecule `COCCN(Cc1cccc(O)c1)/C(=N\c1cccc(Cl)c1)Sc1ccc(C)cc1C` [Cmpd 92] yielded an inhibition of growth at 177.6 µg/mL under setting [1] of 59.8%.

`COCCN(Cc1cccc(O)c1)/C(=N\c1ccc(F)c(Cl)c1)Sc1ccc(C)cc1C` [Cmpd 94] returned an inhibition of growth at 177.6 µg/mL under setting [2] of 54%. On to `CCc1cccc(/N=C(/Sc2ccc(C)cc2C)N(CCOC)Cc2cccc(O)c2)c1` [Cmpd 98], for which the inhibition of growth at 177.6 µg/mL under setting [1] was found to be 69.9%. Take `COCCN(Cc1cccc(O)c1)/C(=N\c1ccc(Cl)c([N+](=O)[O-])c1)Sc1ccc(C)cc1C` [Cmpd 103]: the inhibition of growth at 177.6 µg/mL under setting [1] amounted to 58.9%.

Under setting [2], `COCCN(Cc1cccc(O)c1)/C(=N\c1cc(C)ccc1OC)Sc1ccc(C)cc1C` [Cmpd 109] gave an inhibition of growth at 177.6 µg/mL of 56.3%. Under setting [1], `COCCN(Cc1cccc(O)c1)/C(=N\c1ccc(Cl)c(C(F)(F)F)c1)Sc1ccc(C)cc1C` [Cmpd 113] gave an inhibition of growth at 177.6 µg/mL of 59.8%. Regarding `COc1cccc(S/C(=N\Cc2ccc(F)cc2)N(Cc2ccc(C)cc2)Cc2ccc(O)cc2)c1` [Cmpd 124], the inhibition of growth at 177.6 µg/mL under setting [2] is 55.6%.

For `COc1cccc(S/C(=N/c2ccc(C(F)(F)F)cc2)N(Cc2ccc(C)cc2)Cc2ccc(O)cc2)c1` [Cmpd 127], under setting [1], testing at 177.6 µg/mL gave an inhibition of growth of 61.5%. Same read-out and setting: the result for `COc1cccc(S/C(=N\c2cc(Cl)cc(Cl)c2)N(Cc2ccc(C)cc2)Cc2ccc(O)cc2)c1` [Cmpd 133] reads 94.3%; that for `COc1cccc(S/C(=N/c2ccc(Cl)c([N+](=O)[O-])c2)N(Cc2ccc(C)cc2)Cc2ccc(O)cc2)c1` [Cmpd 143], 93.6%; that for `COc1cccc(S/C(=N/c2ccc(Cl)c(C(F)(F)F)c2)N(Cc2ccc(C)cc2)Cc2ccc(O)cc2)c1` [Cmpd 153], 70.6%. As for `Cc1ccc(S/C(=N\c2ccc(C(F)(F)F)cc2)N(Cc2ccc(O)cc2)Cc2cccc(Cl)c2)cc1` [Cmpd 167], the inhibition of growth at 177.6 µg/mL under setting [1] turned out to be 71%. As to `Cc1ccc(S/C(=N\c2ccc(Cl)c(Cl)c2)N(Cc2ccc(O)cc2)Cc2cccc(Cl)c2)cc1` [Cmpd 168], at 177.6 µg/mL the inhibition of growth under setting [2] was 49.5%. `Cc1ccc(S/C(=N\c2cc(Cl)cc(Cl)c2)N(Cc2ccc(O)cc2)Cc2cccc(Cl)c2)cc1` [Cmpd 173] had an inhibition of growth at 177.6 µg/mL under setting [1] of 70.7%. On the same count and under the same terms, as for `Cc1ccc(S/C(=N\c2ccc(Cl)c([N+](=O)[O-])c2)N(Cc2ccc(O)cc2)Cc2cccc(Cl)c2)cc1` [Cmpd 183], the figure is 64.8%. Molecule `Cc1ccc(S/C(=N\c2ccccc2[N+](=O)[O-])N(Cc2ccc(O)cc2)Cc2cccc(Cl)c2)cc1` [Cmpd 186] yielded an inhibition of growth at 177.6 µg/mL under setting [2] of 56.5%. On to `COc1ccc(C)cc1/N=C(\Sc1ccc(C)cc1)N(Cc1ccc(O)cc1)Cc1cccc(Cl)c1` [Cmpd 189], for which, under setting [1], testing at 177.6 µg/mL gave an inhibition of growth of 61.8%. Regarding `Cc1ccc(CN(Cc2cccc(O)c2)/C(=N/Cc2cccc(C)c2)Sc2ccc(C)cc2C)cc1` [Cmpd 202], at 177.6 µg/mL the inhibition of growth under setting [2] was 51.9%.

`Cc1ccc(CN(Cc2cccc(O)c2)/C(=N/Cc2ccc(F)cc2)Sc2ccc(C)cc2C)cc1` [Cmpd 204] had an inhibition of growth at 177.6 µg/mL under setting [1] of 69.1%. Molecule `Cc1ccc(CN(Cc2cccc(O)c2)/C(=N\c2ccc(C(F)(F)F)cc2)Sc2ccc(C)cc2C)cc1` [Cmpd 207] had an inhibition of growth at 177.6 µg/mL under setting [1] of 95.9%. The molecule `Cc1ccc(CN(Cc2cccc(O)c2)/C(=N/c2cc(Cl)cc(Cl)c2)Sc2ccc(C)cc2C)cc1` [Cmpd 213] displayed an inhibition of growth at 177.6 µg/mL under setting [2] of 57.1%. As for `Cc1ccc(CN(Cc2cccc(O)c2)/C(=N/c2ccccc2[N+](=O)[O-])Sc2ccc(C)cc2C)cc1` [Cmpd 226], under setting [1], the inhibition of growth at 177.6 µg/mL is 74.4%. With `COc1ccc(C)cc1/N=C(\Sc1ccc(C)cc1C)N(Cc1ccc(C)cc1)Cc1cccc(O)c1` [Cmpd 229], the inhibition of growth at 177.6 µg/mL under setting [1] was 65.8%. Same read-out and setting: as for `Cc1ccc(CN(Cc2cccc(O)c2)/C(=N\c2ccc(Cl)c(C(F)(F)F)c2)Sc2ccc(C)cc2C)cc1` [Cmpd 233], the figure is 60.5%. On to `Cc1ccc(S/C(=N/Cc2ccccc2)N(Cc2ccc(O)cc2)CC(C)C)cc1` [Cmpd 241], for which the inhibition of growth at 177.6 µg/mL under setting [2] is 49.8%. On to `Cc1ccc(S/C(=N/Cc2ccc(F)cc2)N(Cc2ccc(O)cc2)CC(C)C)cc1` [Cmpd 244], for which the inhibition of growth at 177.6 µg/mL under setting [2] amounted to 51.6%.

In the case of `Cc1ccc(S/C(=N/c2ccc(C(F)(F)F)cc2)N(Cc2ccc(O)cc2)CC(C)C)cc1` [Cmpd 247], testing at 177.6 µg/mL under setting [1] gave an inhibition of growth of 60.3%. In turn, `Cc1ccc(S/C(=N/c2ccc(Cl)c(Cl)c2)N(Cc2ccc(O)cc2)CC(C)C)cc1` [Cmpd 248] returned an inhibition of growth at 177.6 µg/mL under setting [2] of 55%. As to `Cc1ccc(S/C(=N/c2cc(Cl)cc(Cl)c2)N(Cc2ccc(O)cc2)CC(C)C)cc1` [Cmpd 253], testing at 177.6 µg/mL under setting [1] gave an inhibition of growth of 66.5%.

For the molecule `Cc1ccc(S/C(=N/c2ccc(F)c(Cl)c2)N(Cc2ccc(O)cc2)CC(C)C)cc1` [Cmpd 254], at 177.6 µg/mL the inhibition of growth under setting [2] was 49.2%.

For the molecule `Cc1ccc(S/C(=N/c2ccc(Cl)c([N+](=O)[O-])c2)N(Cc2ccc(O)cc2)CC(C)C)cc1` [Cmpd 263], the inhibition of growth at 177.6 µg/mL under setting [2] is 53.8%. On to `Cc1ccc(S/C(=N/c2ccc(Cl)c(C(F)(F)F)c2)N(Cc2ccc(O)cc2)CC(C)C)cc1` [Cmpd 273], for which the inhibition of growth at 177.6 µg/mL under setting [1] came to 64.6%. Regarding `Cc1ccc(S/C(=N/c2ccc(F)c(F)c2)N(Cc2ccc(O)cc2)CC(C)C)cc1` [Cmpd 276], at 177.6 µg/mL the inhibition of growth under setting [1] was 62.1%. For the molecule `Cc1cccc(C/N=C(\Sc2ccc(C)cc2C)N(CCc2ccc(Cl)cc2)Cc2cccc(O)c2)c1` [Cmpd 282], testing at 177.6 µg/mL under setting [2] gave an inhibition of growth of 49.8%. With `Cc1ccc(S/C(=N\Cc2ccc(F)cc2)N(CCc2ccc(Cl)cc2)Cc2cccc(O)c2)c(C)c1` [Cmpd 284], the inhibition of growth at 177.6 µg/mL under setting [1] turned out to be 64%. For `Cc1ccc(S/C(=N\c2ccc(C(F)(F)F)cc2)N(CCc2ccc(Cl)cc2)Cc2cccc(O)c2)c(C)c1` [Cmpd 287], the inhibition of growth at 177.6 µg/mL under setting [1] is 97.7%. As to `Cc1ccc(S/C(=N\c2ccc(F)c(Cl)c2)N(CCc2ccc(Cl)cc2)Cc2cccc(O)c2)c(C)c1` [Cmpd 294], the inhibition of growth at 177.6 µg/mL under setting [2] stood at 56.6%. On to `Cc1ccc(S/C(=N/c2ccc(Cl)c(C(F)(F)F)c2)N(CCc2ccc(Cl)cc2)Cc2cccc(O)c2)c(C)c1` [Cmpd 313], for which the inhibition of growth at 177.6 µg/mL under setting [2] is 50.4%. Molecule `COc1cccc(CN(Cc2cccc(O)c2)/C(=N/c2ccc(C(F)(F)F)cc2)Sc2cccc(OC)c2)c1` [Cmpd 327] gave an inhibition of growth at 177.6 µg/mL under setting [2] of 56.7%.
